Test results: PMC12775149 (Nature Communications, 2025)

Legend:
AtCAT5 = biological target: T1, AtCAT5 (Arabidopsis thaliana, UniProt O64759); assay: LC-MS/MS of PPT accumulated in overexpressing M. polymorpha versus Tak-1; details: whole plants, 100 µM PPT (time course at 1 mM PPT up to 48 h)
T1 sequence (O64759 1-569): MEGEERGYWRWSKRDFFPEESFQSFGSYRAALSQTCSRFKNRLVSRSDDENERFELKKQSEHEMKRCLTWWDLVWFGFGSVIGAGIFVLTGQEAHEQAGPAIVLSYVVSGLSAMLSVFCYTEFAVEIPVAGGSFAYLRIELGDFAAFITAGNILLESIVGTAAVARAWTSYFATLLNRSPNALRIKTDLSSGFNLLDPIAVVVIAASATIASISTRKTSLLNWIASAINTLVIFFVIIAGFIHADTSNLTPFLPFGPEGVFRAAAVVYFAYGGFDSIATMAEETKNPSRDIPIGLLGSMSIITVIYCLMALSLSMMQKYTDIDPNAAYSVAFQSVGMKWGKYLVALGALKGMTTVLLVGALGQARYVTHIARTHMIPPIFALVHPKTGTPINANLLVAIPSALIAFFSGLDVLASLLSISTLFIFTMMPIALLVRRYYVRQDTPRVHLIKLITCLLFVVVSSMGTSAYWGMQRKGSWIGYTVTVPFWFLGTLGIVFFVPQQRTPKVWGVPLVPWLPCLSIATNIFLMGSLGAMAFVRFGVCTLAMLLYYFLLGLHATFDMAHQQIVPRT

AtCAT1 = biological target: T2, AtCAT1 (Arabidopsis thaliana, UniProt Q84MA5); assay: as above; details: whole plants, 100 µM PPT
T2 sequence (Q84MA5 2-594): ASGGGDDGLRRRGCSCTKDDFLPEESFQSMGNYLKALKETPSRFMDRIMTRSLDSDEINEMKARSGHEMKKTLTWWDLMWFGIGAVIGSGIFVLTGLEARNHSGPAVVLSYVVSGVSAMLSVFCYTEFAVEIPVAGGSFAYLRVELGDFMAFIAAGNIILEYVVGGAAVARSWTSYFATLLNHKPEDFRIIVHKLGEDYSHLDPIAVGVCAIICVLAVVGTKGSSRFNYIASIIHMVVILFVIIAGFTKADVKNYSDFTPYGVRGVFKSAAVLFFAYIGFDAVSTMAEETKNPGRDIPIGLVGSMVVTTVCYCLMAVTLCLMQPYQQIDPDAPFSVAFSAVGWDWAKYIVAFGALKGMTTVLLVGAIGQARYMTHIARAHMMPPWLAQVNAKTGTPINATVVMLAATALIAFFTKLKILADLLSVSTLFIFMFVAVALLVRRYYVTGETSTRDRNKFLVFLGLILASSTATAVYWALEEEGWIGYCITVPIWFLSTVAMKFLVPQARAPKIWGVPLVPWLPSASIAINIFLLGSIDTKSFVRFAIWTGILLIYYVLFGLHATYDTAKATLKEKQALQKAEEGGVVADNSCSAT

CP(=O)(O)CC[C@H](N)C(=O)O [PPT, L-phosphinothricin]
PPT accumulation (AtCAT5): Increased PPT contents in both AtCAT1ox and AtCAT5ox lines confirmed the successful mediation | PPT accumulation (AtCAT1): Increased PPT contents in both AtCAT1ox and AtCAT5ox lines confirmed the successful mediation
